Residues, ends and D or L forms follow the SMILES beside them.
Columns and labels:
PAR1 [1] = target: T1, PAR1 (Homo sapiens, UniProt P25116); assay: PAR1
T1 sequence (P25116 22-425): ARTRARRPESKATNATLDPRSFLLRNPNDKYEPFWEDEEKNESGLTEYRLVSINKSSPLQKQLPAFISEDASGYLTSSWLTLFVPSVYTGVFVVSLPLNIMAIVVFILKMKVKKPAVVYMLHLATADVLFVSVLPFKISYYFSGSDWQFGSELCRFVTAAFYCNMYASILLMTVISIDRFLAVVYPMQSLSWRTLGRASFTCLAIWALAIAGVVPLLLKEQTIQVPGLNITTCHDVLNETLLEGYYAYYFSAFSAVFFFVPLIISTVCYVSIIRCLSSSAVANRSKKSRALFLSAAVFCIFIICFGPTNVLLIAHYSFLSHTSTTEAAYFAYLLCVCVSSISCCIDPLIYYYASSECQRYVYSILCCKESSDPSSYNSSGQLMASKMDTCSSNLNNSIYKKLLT

human platelets = conditions: cited from earlier work; for IC50: read-out: potency in P-selectin assay, human platelets
[2] = cited from earlier work
PAR1 [3] = conditions: cited from earlier work
Aqueous solubility = type: physicochemical; conditions: turbid suspensions observed at high concentrations
PAR1 [4] = conditions: platelet membranes; cited from earlier work
cardiac infarct size = conditions: murine myocardial ischemia-reperfusion injury; cited from earlier work
[5] = 5 μM TFLLRN-NH2, EA.hy926 cells

C#CCCC(=O)Nc1cccc(NC(=O)c2ccccc2Br)c1 [RR-10, 2-Bromo-N-(3-(pent-4-ynamido)phenyl)benzamide]
activity in PAR1 iCa2+ assay (in words) (PAR1 [1]; [5]): only modest inhibition of PAR1

CCCCNc1cccc(NC(=O)c2ccccc2Br)c1 [RR-90]
IC50 (human platelets): 340 nM

CC(C)CC(=O)Nc1cccc(NC(=O)c2ccccc2Br)c1 [CJD-125]
potency relative to ML161 in platelet P-selectin assay (human platelets): equipotency
plasma stability relative to ML161 [2]: improved plasma stability
activity in PAR1 iCa2+ assay (in words) (PAR1 [1]; [5]): less potent than ML161 and did not give a good concentration-response

CC(C)C[C@H](NC(=O)[C@H](CC(C)C)NC(=O)[C@H](Cc1ccccc1)NC(=O)[C@@H](N)[C@@H](C)O)C(=O)N[C@@H](CCCNC(=N)N)C(=O)N[C@@H](CC(N)=O)C(N)=O [TFLLRN-NH2, reference compound] (H-TFLLRN-NH2)
EC50 (PAR1 [1]): 4800 nM

CCCC(=O)Nc1cccc(NC(=O)c2ccccc2N=[N+]=[N-])c1 [DG-5, 2-Azido-N-(3-butyramidophenyl)benzamide]
activity in PAR1 iCa2+ assay (in words) (PAR1 [1]; [5]): only modest activity

C#CCCC(=O)NCC[C@H](NC(=O)[C@H](Cc1ccc(F)c(F)c1)NC(=O)Nc1ccc2c(CN3CCCC3)nn(Cc3c(Cl)cccc3Cl)c2c1)C(=O)NCc1ccccc1 [DG-207, N-((S)-4-(Benzylamino)-3-((S)-2-(3-(1-(2,6-dichlorobenzyl)-3-(pyrrolidin-1-ylmethyl)-1H-indazol-6-yl)ureido)-3-(3,4-difluorophenyl)propanamido)-4-oxobutyl)pent-4-ynamide]
fold less potent than RWJ-58259 (PAR1 [1]; [5]): 15 fold

NCC[C@H](NC(=O)[C@H](Cc1ccc(F)c(F)c1)NC(=O)Nc1ccc2c(CN3CCCC3)cn(Cc3c(Cl)cccc3Cl)c2c1)C(=O)NCc1ccccc1 [RWJ-56110]
mode of inhibition of radiolabeled PAR1 activating peptide binding (PAR1 [3]): competitive inhibitor

CCCC(=O)Nc1cccc(NC(=O)c2ccccc2Br)c1 [ML161]
aqueous solubility (Aqueous solubility): low aqueous solubility
mode of inhibition of SFLLRN-NH2 (human platelets; platelet P-selectin assay): non-competitive inhibitor
IC50 (human platelets): 260 nM
inhibition of [3H]TRAP binding (PAR1 [4]): does not significantly inhibit binding
cardiac infarct size (cardiac infarct size): significantly decreased

CCOC(=O)N[C@@H]1CC[C@@H]2[C@@H](C1)C[C@H]1C(=O)O[C@H](C)[C@H]1[C@H]2/C=C/c1ccc(-c2cccc(F)c2)cn1 [Vorapaxar, reference compound]
aqueous solubility (Aqueous solubility): low aqueous solubility
IC50 (PAR1 [1]): 32 nM
% Inhibition (PAR1 [1]; in presence of 5 μM TFLLRN-NH2, EA.hy926 cells): 95%

CCCCC(=O)Nc1cccc(NC(=O)c2ccccc2Br)c1 [EMG-23, 2-Bromo-N-(3-pentanamidophenyl)benzamide]
activity in PAR1 iCa2+ assay (in words) (PAR1 [1]; [5]): poorly active

From publication PMC5937995 (Bioorganic & medicinal chemistry, 2018)
